Data published in patent publication US20120165319A1, “INHIBITORS OF INTERLEUKIN-1 BETA CONVERTING ENZYME” (VERTEX PHARMACEUTICALS INCORPORATED, priority 1995, published 2012).

Columns and labels:
ICE = molecular target: T1, ICE (Homo sapiens, UniProt P29466); assay: Enzyme assay with UV-visible substrate (visible ICE assay, Succinyl-Tyr-Val-Ala-Asp-pNitroanilide); type: biochemical
T1 sequence (P29466 120-297 limits assumed): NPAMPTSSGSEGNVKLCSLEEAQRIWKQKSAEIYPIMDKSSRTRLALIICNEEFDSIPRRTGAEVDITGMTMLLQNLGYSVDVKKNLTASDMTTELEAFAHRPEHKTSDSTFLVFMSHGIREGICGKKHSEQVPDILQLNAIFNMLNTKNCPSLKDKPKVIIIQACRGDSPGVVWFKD
T1 sequence (P29466 317-404 limits assumed): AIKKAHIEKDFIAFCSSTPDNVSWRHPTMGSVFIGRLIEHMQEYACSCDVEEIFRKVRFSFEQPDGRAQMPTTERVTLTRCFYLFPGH
Summary of the method: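 Human ICE was preincubated with inhibitor in DMSO and buffer for 15 min at room temperature, then succinyl-Tyr-Val-Ala-Asp-pNA was added. pNA release was followed at 405-603 nm for 20 min at 37° C. Ki and inhibition mode came from fitting rates to standard kinetic equations.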

[1] = tested on: IL-1β, human peripheral blood mononuclear cells (PBMC); assay: PBMC cell assay: IL-1β assay with human PBMC or enriched adherent mononuclear cells, LPS-stimulated; type: cell-based
Summary of the method: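 Mature IL-1β is measured by ELISA in supernatants after 16–18 hr at 37 °C, 5% CO2, with LPS (5 ng/ml final) and test compound (0.1% DMSO final). Cells are human PBMC (6×10^6 cells/ml) or plate-adherent mononuclear cells (2.5−3.0×10^5 per well), and the 5–6 compound concentrations span the ICE Ki.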

[2] = In vivo rat clearance assay; conditions: for clearance: plasma, iv
Summary of the method: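 Rats cannulated a day beforehand received 10–20 mg/kg by intravenous jugular dosing in propylene glycol/saline with 100 mM sodium bicarbonate. Carotid blood was sampled from 0 to 90 min, and plasma was extracted with acetonitrile/0.1% TFA for HPLC quantification. Clearance from non-linear regression pharmacokinetic analysis.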

[3] = Homo sapiens, PBMC, * = values obtained upon reassay
[4] = * = values obtained upon reassay

Ki (ICE; Table 5) | clearance ([2]; 10-20 mg/kg) | Molecule | IC50 [1, 3] | also measured
– | – | O=C1C[C@H](NC(=O)[C@@H]2CCCN3C(=O)CC[C@H](NC(=O)c4cccc5ccccc45)C(=O)N23)C(OCc2ccccc2)O1 (stereo partly drawn) [Compound 213v, [1S,9S(2RS,3S)]N-(2-Benzyloxy-5-oxotetrahydrofuran-3-yl)-6,10-dioxo-9-(naphth-1-oylamino)-1,2,3,4,7,8,9,10-octahydro-6H-pyridazino[1,2-a][1,2]diazepine-1-carboxamide] | – | Ki (ICE; Table 17): 0.0005 µM; IC50 ([1]; Homo sapiens, PBMC, Table 17): 1.1 µM; clearance ([2]; Table 17): 23 mL/min/kg
– | – | O=C[C@H](CC(=O)O)NC(=O)[C@@H]1CCCN2C(=O)CC[C@H](NC(=O)c3cc(Cl)c(O)c(Cl)c3)C(=O)N12 [Compound 214k, [3S(1S,9S)]3-(9-(3,5-Dichloro-4-hydroxybenzoyl)amino-6,10-dioxo-1,2,3,4,7,8,9,10-octahydro-6H-pyridazino[1,2-a][1,2]diazepine-1-carboxamido)-4-oxobutanoic acid] | – | Ki (ICE; Table 17): 0.0002 µM; IC50 ([1]; Homo sapiens, PBMC, Table 17): 0.5 µM; clearance ([2]; Table 17): 22 mL/min/kg
– | – | CC(=O)Nc1ccc(C(=O)N[C@H]2CCC(=O)N3CCC[C@@H](C(=O)N[C@H](C=O)CC(=O)O)N3C2=O)cc1Cl [Compound 214l, [3S(1S,9S)]3-(9-(3-Chloro-4-acetamidobenzoyl)amino-6,10-dioxo-1,2,3,4,7,8,9,10-octahydro-6H-pyridazino[1,2-a][1,2]diazepine-1-carboxamido)-4-oxobutanoic acid] | – | Ki (ICE; Table 17): 0.006 µM; IC50 ([1]; Homo sapiens, PBMC, Table 17): 1.9 µM; clearance ([2]; Table 17): 12 mL/min/kg
– | – | COc1c(Cl)cc(C(=O)N[C@H]2CCC(=O)N3CCC[C@@H](C(=O)N[C@H](C=O)CC(=O)O)N3C2=O)cc1Cl [Compound 214m] | – | Ki (ICE; Table 17): 0.0015 µM; IC50 ([1]; Homo sapiens, PBMC, Table 17): 0.53 µM; clearance ([2]; Table 17): 33.4 mL/min/kg
– | – | Cc1cc(C(=O)N[C@H]2CCC(=O)N3CCC[C@@H](C(=O)N[C@H](C=O)CC(=O)O)N3C2=O)cc(C)c1O [Compound 214w] | – | Ki (ICE; Table 17): 0.0006 µM; IC50 ([1]; Table 17): 0.62 µM; Clearance Rat, i.v. ([2]; Table 17): 15 mL/min/kg
1.1 µM | 26 mL/min/kg | N#C[C@H](CC(=O)O)NC(=O)[C@@H]1CCCN2C(=O)CC[C@H](NC(=O)c3ccccc3)C(=O)N12 [Compound 232e, [3S(1S,9S)]9-(Benzoylamino)-3-[6,10-dioxo-1,2,3,4,7,8,9,10-octahydro-6H-pyridazino-[1,2-a][1,2]diazepine-1-carboxamido]-3-cyanopropanoic acid] | 4.5 µM | –
– | 187 mL/min/kg | O=C(O)C[C@H](NC(=O)[C@@H]1CCCN2C(=O)CC[C@H](NC(=O)c3ccccc3)C(=O)N12)C(=O)CSc1nnnn1-c1ccccc1 [Compound 280, [3S(1S,9S)]3-(9-Benzoylamino-6,10-dioxo-1,2,3,4,7,8,9,10-octahydro-6H-pyridazino[1,2-a][1,2]diazepine-1-carboxamido)-4-oxo-5(1-phenyl-1H-tetrazole-5-thio)pentanoic acid] | 0.65 µM | –
– | 104 mL/min/kg | O=C(O)C[C@H](NC(=O)[C@@H]1CCCN2C(=O)CC[C@H](NC(=O)c3ccccc3)C(=O)N12)C(=O)COc1cccnc1 [Compound 283, [3S(1S,9S)]3-[9-Benzoylamino-6,10-dioxo-1,2,3,4,7,8,9,10-octahydro-6H-pyridazino[1,2-a][1,2]diazepine-1-carboxamido]-4-oxo-5-(3-pyridyloxy)pentanoic acid] | < 0.2 µM | –
– | 100 mL/min/kg | COC(=O)N[C@H]1CCC(=O)N2CCC[C@@H](C(=O)N[C@@H](CC(=O)O)C(=O)COC(=O)c3c(Cl)cccc3Cl)N2C1=O [Compound 284, [3S(1S,9S)]5-(2,6-Dichlorobenzoyloxy)-3-[6,10-dioxo-9-(methoxycarbonyl)amino-1,2,3,4,7,8,9,10-octahydro-6H-pyridazino[1,2-a][1,2]diazepine-1-carboxamido]-4-oxopentanoic acid] | 0.47 µM | –
– | 50 mL/min/kg | COC(=O)N[C@H]1CCC(=O)N2CCC[C@@H](C(=O)N[C@@H](CC(=O)O)C(=O)COC(=O)c3c(C)cccc3C)N2C1=O [Compound 285, [3S(1S,9S)]5-(2,6-Dimethylbenzoyloxy)-3-[6,10-dioxo-9-(methoxycarbonyl)amino-1,2,3,4,7,8,9,10-octahydro-6H-pyridazino[1,2-a][1,2]diazepine-1-carboxamido]-4-oxopentanoic acid] | 0.81 µM | –
– | – | CS(=O)(=O)N[C@H]1CCC(=O)N2CCC[C@@H](C(=O)N[C@@H](CC(=O)O)C(=O)COC(=O)c3cccc4ccccc34)N2C1=O [Compound 286, [3S(1S,9S)]3-(6,10-Dioxo-9-methanesulphonylamino-1,2,3,4,7,8,9,10-octahydro-6H-pyridazino[1,2-a][1,2]diazepine-1-carboxamido)-5-(1-naphthoyloxy)-4-oxopentanoic acid] | – | IC50 ([1]; Table 18): 0.3 µM; Clearance Rat, i.v. ([2]; Table 18): 119 mL/min/kg
0.0005 µM | 23 mL/min/kg | O=C[C@H](CC(=O)O)NC(=O)[C@@H]1CCCN2C(=O)CC[C@H](NC(=O)c3cccc4ccccc34)C(=O)N12 [Compound 408, [3S(1S,9S)]3-[6,10-Dioxo-9-(naphth-1-oylamino)-1,2,3,4,7,8,9,10-octahydro-6H-pyridazino[1,2-a][1,2]diazepine-1-carboxamido]-4-oxobutanoic acid] | 1.1 µM | –
0.017 µM | 20 mL/min/kg | O=C[C@H](CC(=O)O)NC(=O)[C@@H]1CCCN2C(=O)CC[C@H](NC(=O)c3ccsc3)C(=O)N12 [Compound 410] | 2 µM | –
0.0013 µM | 25 mL/min/kg | O=C[C@H](CC(=O)O)NC(=O)[C@@H]1CCCN2C(=O)CC[C@H](NC(=O)c3nccc4ccccc34)C(=O)N12 [Compound 412, [3S(1S,9S)]3-[6,10-Dioxo-9-(isoquinolin-1-oylamino)-1,2,3,4,7,8,9,10-octahydro-6H-pyridazino[1,2-a][1,2]diazepine-1-carboxamido]-4-oxobutanoic acid] | 0.58 µM | IC50 [1, 4]: 0.66 µM
– | – | [3S(1S,9S)]3-[(6,10-Dioxo-9-(methanesulphonylamino)-1,2,3,4,7,8,9,10-octahydro-6H-pyridazino[1,2-a][1,2]diazepine-1-carboxamido]-5-(5-methyl-3-phenylisoxazoyloxy)-4-oxopentanoic acid [505 b] | – | IC50 ([1]; Table 18): 1.5 µM; Clearance Rat, i.v. ([2]; Table 18): 196 mL/min/kg

Molecule | Ki (ICE; Table 5) | clearance ([2]; 10-20 mg/kg) | IC50 [1, 3] | also measured
O=C[C@H](CC(=O)O)NC(=O)[C@@H]1CCCN2C(=O)CC[C@H](NC(=O)c3ccccc3)C(=O)N12 [Compound 214e, [3S(1S,9S)]3-(9-Benzoylamino-6,10-dioxo-1,2,3,4,7,8,9,10-octahydro-6H-pyridazino[1,2-a][1,2]-diazepine-1-carboxamido)-4-oxobutanoic acid] | 0.0075 µM | 12 mL/min/kg | 1.6 µM | –
O=C[C@H](CC(=O)O)NC(=O)[C@@H]1CCCN2C(=O)CCN(NC(=O)c3ccccc3)C(=O)N12 [Compound 265, [3S(4S)]3-(7-Benzamido-6,10-dioxo-1,2,3,4,7,8,9,10-octahydro-6H-pyridazino[1,2-a][1,2,4]triazepine-4-carboxamido)-4-oxobutanoic acid] | 0.047 µM | 20 mL/min/kg | 4.3 µM | –
Cc1ccccc1C(=O)N[C@H]1CCC(=O)N2CCC[C@@H](C(=O)N[C@H](C=O)CC(=O)O)N2C1=O [Compound 404] | 0.0029 µM | 24 mL/min/kg | 1.65 µM | IC50 [1, 4]: 1.8 µM
